What is called inhibition in vivo is the share of the control response that was lost under treatment. A lower inhibition in vivo goes with a response near the control. What is called Ki is a measure of affinity in units of concentration, obtained from inhibition or displacement. One may read the IC50 as the point on the concentration scale where inhibition reaches its midpoint. Higher therefore signals a need for much substance.

Inhibition in vivo, Ki and IC50 data for 5 molecules are collected here from ChEMBL document CHEMBL3804784, “Sulfatase inhibitors for recidivist breast cancer treatment: A chemical review” (Eur J Med Chem, 2016).

The test system of one experiment is Rattus norvegicus. The experiment in a line: In vivo inhibition of aromatase in pregnant mare's serum gonadotrophin-stimulated ovarian aromatase rat model at 10 mg/kg, po relative to control. Format: functional.
Experiment [1] deals with T1, Steryl-sulfatase (Homo sapiens, UniProt P08842).
T1 sequence (P08842 whole entry): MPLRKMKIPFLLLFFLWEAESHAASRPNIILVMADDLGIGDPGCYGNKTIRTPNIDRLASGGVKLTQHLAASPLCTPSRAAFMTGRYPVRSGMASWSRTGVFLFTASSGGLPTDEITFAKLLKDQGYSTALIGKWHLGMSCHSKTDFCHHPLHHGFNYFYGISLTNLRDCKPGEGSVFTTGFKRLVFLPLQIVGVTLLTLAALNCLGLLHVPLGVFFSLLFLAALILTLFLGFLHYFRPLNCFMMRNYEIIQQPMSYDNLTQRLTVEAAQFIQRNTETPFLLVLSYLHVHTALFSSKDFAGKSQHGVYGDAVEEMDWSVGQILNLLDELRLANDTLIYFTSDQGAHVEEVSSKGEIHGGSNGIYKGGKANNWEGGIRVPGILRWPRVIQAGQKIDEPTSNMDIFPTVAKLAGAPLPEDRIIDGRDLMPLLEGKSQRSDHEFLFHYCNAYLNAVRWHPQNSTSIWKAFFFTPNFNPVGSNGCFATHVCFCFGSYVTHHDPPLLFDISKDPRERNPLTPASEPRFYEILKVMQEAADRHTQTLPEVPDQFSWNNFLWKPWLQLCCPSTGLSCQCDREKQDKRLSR
The experiment in a line: Reversible inhibition of recombinant human estrone sulfatase using 4-methylumbelliferyl sulfate as substrate by Hanes plot analysis.

Experiment [2] concerns the target T1, Steryl-sulfatase. Description: Inhibition of recombinant human estrone sulfatase expressed in CHO cells using 4-methylumbelliferyl sulfate as substrate by Hanes plot analysis. Format: cell-based.
Experiment [3] has as its target T1, Steryl-sulfatase. Description: Inhibition of estrone sulfatase in human MCF7 cells using [3H]-estrone sulphate as substrate incubated for 30 mins by liquid scintillation counting method. Format: cell-based.
In experiment [4] the target is T1, Steryl-sulfatase. Description: Inhibition of placental microsomal estrone sulfatase (unknown origin) using [6,7-3H]E1S as substrate incubated for 1 hr by scintillation spectrometric analysis.
The target in experiment [5] is T1, Steryl-sulfatase. Description: Inhibition of human placental estrone sulfatase expressed in HEK293 cells using [3H]E1S as substrate incubated for 2 hrs by liquid scintillation counting method. Format: cell-based.
The target of experiment [6] is T1, Steryl-sulfatase. Description: Inhibition of estrone sulfatase in human JEG-3 cells using [3H]-estrone sulphate as substrate incubated for 4 hrs by liquid scintillation counting method. Format: cell-based.
In experiment [7] the target is T1, Steryl-sulfatase. Description: Inhibition of human placental microsomal estrone sulfatase using 4-methylumbelliferyl sulfate as substrate incubated for 1 hr by fluorescence assay.

On to `N#Cc1ccc(N(Cc2ccc(OS(N)(=O)=O)c(Br)c2)n2cnnc2)cc1`, for which at 10 mg/kg the inhibition in vivo with Rattus norvegicus was 82%.
For `O=C(O)c1ccc2sc(C34CC5CC(CC(C5)C3)C4)cc(=O)c2c1`, at Steryl-sulfatase [1], the Ki came out at 0.5 µM.
As to `O=C(NN1[C@@H]2CC[C@H]1CC(C(=O)OCc1ccccc1)C2)NS(=O)(=O)c1ccc(Cl)cc1` (stereo partly drawn), on Steryl-sulfatase [2], the Ki was 0.89 µM.
Take `CCN(CC)CCOCC[C@H]1CC[C@H]2[C@@H]3[C@H](C)Cc4cc(OS(N)(=O)=O)ccc4[C@H]3CC[C@]12C`: the half-inhibitory concentration (IC50) against Steryl-sulfatase [3] came out at 0.1 µM.
For the molecule `C[C@]12CC[C@@H]3c4ccc(OS(N)(=O)=O)cc4CC[C@H]3[C@@H]1CCC2=O` [EMATE], the half-inhibitory concentration (IC50) stood at 0.0091 µM on Steryl-sulfatase [4], 0.0009 µM against Steryl-sulfatase [5], 0.0032 µM at Steryl-sulfatase [6] and 0.06 µM on Steryl-sulfatase [7].
